According to patent US10865216B2, “Tricyclic Gyrase inhibitors” (MERCK SHARP & DOHME CORP., priority 2012, dated 2020):
Converted amounts (≈) assume the structure as drawn. Where two headings read alike, the source gives them in different places.

Tests used:
Assay type in all cases: cell-based
[1] = tested on: P. aeruginosa ATCC 15692; assay: MIC, P. aeruginosa ATCC 15692; conditions: for PA MIC: Table 17, comparative, new species of R2; for Pa MIC / MIC: Table 10, Pa = P. aeruginosa; for MIC: Pseudomonas aeruginosa, ATCC15692
[2] = tested on: S. pneumoniae ATCC 51916; assay: MIC, S. pneumoniae ATCC 51916; conditions: for Spn52 MIC: Table 17, comparative, Spn52 not defined; for Spn MIC / MIC: Table 10, Spn = S. pneumoniae; for MIC: Streptococcus pneumoniae, ATCC51916
[3] = tested on: S. aureus ATCC 13709; assay: MIC, S. aureus ATCC 13709; conditions: for SA MIC: Table 17, comparative, new species of R2; for Sa MIC: Table 10; for MIC: Staphylococcus aureus
[4] = tested on: B. thailandensis ATCC E264; assay: microbe, parasite or virus in culture
[5] = tested on: Y. pestis CO92 pgm-; conditions: Table 10
[6] = tested on: F. tularensis holarctica LVS; assay: microbe, parasite or virus in culture; conditions: Table 10; Ft = F. tularensis, strain not stated
[7] = tested on: A. baumannii ATCC 19606; assay: MIC, A. baumannii ATCC 19606; conditions: Table 10, Ab = A. baumannii, strain not stated; for MIC: Acinetobacter baumannii, ATCC19606
[8] = tested on: K. pneumoniae ATCC 700603; assay: MIC, K. pneumoniae ATCC 700603; conditions: Table 10, Kpn = K. pneumoniae; for MIC: Klebsiella pneumoniae, ATCC700603
[9] = tested on: E. coli ATCC 25922; assay: MIC, E. coli ATCC 25922; conditions: for Ec MIC: Table 10; for MIC: Escherichia coli
[10] = E. coli, Alamar Blue read after overnight incubation at 35° C.
[11] = Ec = E. coli, strain not stated
[12] = S. aureus, Alamar Blue read after overnight incubation at 35° C.
[13] = ATCC25922, E. coli, Alamar Blue read after overnight incubation at 35° C., read-out: MIC Ec
[14] = ATCC25922, Table 10, Ec = E. coli, strain not stated, read-out: Ec MIC
[15] = ATCC13709, S. aureus, Alamar Blue read after overnight incubation at 35° C., read-out: MIC Sa
[16] = ATCC13709, Table 10, Sa = S. aureus, read-out: Sa MIC

SMILES | Pa MIC [1] [µg/mL] | Bt MIC [4] [µg/mL] | Yp MIC [5] [µg/mL] | Spn MIC [2] [µg/mL] | Ft MIC [6] [µg/mL] | Ab MIC [7] [µg/mL] | Kpn MIC [8] [µg/mL] | MIC Ec [9, 10] [µg/mL] | Ec MIC [9, 11] [µg/mL] | MIC Sa [3, 12] [µg/mL] | Sa MIC ([3]; Sa = S. aureus) [µg/mL] | also measured
CNc1cc(F)cc2c1[nH]c1nc(Oc3cnc(C)nc3)nc(C3C[C@H]4CCN[C@H]4C3)c12 (some centres unmarked) |  |  |  |  |  |  |  |  |  |  |  | PA MIC [1]: 2 µg/mL; Spn52 MIC [2]: < 0.03 µg/mL; SA MIC [3]: < 0.03 µg/mL
CNc1cc(F)cc2c1[nH]c1nc(Oc3cnc(C)nc3)nc(N3C[C@H]4C[C@@H]3C[C@H]4N)c12 |  |  |  |  |  |  |  |  |  |  |  | PA MIC [1]: 1 µg/mL; Spn52 MIC [2]: ≤ 0.016 µg/mL; SA MIC [3]: ≤ 0.016 µg/mL
CNc1cc(F)cc2c1[nH]c1nc(Oc3cnc4ccnn4c3)nc(N3C[C@H]4C[C@@H]3C[C@H]4N)c12 |  |  |  |  |  |  |  |  |  |  |  | PA MIC [1]: 0.5 µg/mL; Spn52 MIC [2]: ≤ 0.001 µg/mL; SA MIC [3]: ≤ 0.016 µg/mL
CNc1cc(F)cc2c1[nH]c1nc(Oc3cnc4cccnc4c3)nc(N3CC4C(N)C4C3)c12 (centres unmarked) [Compound 4.035] | 4 | ≤0.5 | ≤0.5 | ≤0.5 | 1 | ≤0.5 | 2 | ≤0.5 | ≤0.5 | ≤0.5 | ≤0.5 | 
CNc1cc(F)cc2c1[nH]c1nc(Oc3cnc4cccnc4c3)nc(N3CC4(CCC4N)C3)c12 (centres unmarked) [Compound 4.045] | 4 | 1 | ≤0.5 | ≤0.5 | 2 | ≤0.5 | 8 | ≤0.5 | ≤0.5 | ≤0.5 | ≤0.5 | 
CNc1cc(F)cc2c1[nH]c1nc(Oc3cnc(C)nc3)nc(N3CCC4(CC4N)C3)c12 (centres unmarked) [Compound 4.066] | 2 | ≤0.5 | ≤0.5 | ≤0.5 | 1 | ≤0.5 | 2 | ≤0.5 | ≤0.5 | ≤0.5 | ≤0.5 | 
CNc1cc(F)cc2c1[nH]c1nc(Oc3cnc(C)nc3)nc(N3CC(N)C4(CC4)C3)c12 (centres unmarked) [Compound 4.069] | 4 | ≤0.5 | ≤0.5 | ≤0.5 | 2 | ≤0.5 | 2 | ≤0.5 | ≤0.5 | ≤0.5 | ≤0.5 | 
CNc1cc(F)cc2c1[nH]c1nc(Oc3cnc(C)nc3)nc(N3CC4C(N)C4C3)c12 (centres unmarked) [Compound 4.073] | 4 | ≤0.5 | ≤0.5 | ≤0.5 | 1 | ≤0.5 | 2 | ≤0.5 | ≤0.5 | ≤0.5 | ≤0.5 | 
CNc1cc(F)cc2c1[nH]c1nc(Oc3cnc(C)nc3)nc(N3CC4CC(N)C4C3)c12 (centres unmarked) [Compound 4.084] | 1 | ≤0.5 | ≤0.5 | ≤0.5 | ≤0.5 | ≤0.5 | 4 | ≤0.5 | ≤0.5 | ≤0.5 | ≤0.5 | 
CNc1cc(F)cc2c1[nH]c1nc(Oc3cnc(C)nc3)nc(N3CC4NCCC4(C)C3)c12 (centres unmarked) [Compound 4.157] | 8 |  |  | ≤0.5 |  | ≤0.5 | 4 | ≤0.5 | ≤0.5 | ≤0.5 | ≤0.5 | 
CNc1cc(F)cc2c1[nH]c1nc(Oc3cnc(C(C)O)nc3)nc(N3CC4(CCC4N)C3)c12 (centres unmarked) [Compound 4.410] | 1 |  |  | ≤0.5 |  | 2 | 2 | ≤0.5 | ≤0.5 | ≤0.5 | ≤0.5 | 
CNc1cc(F)cc2c1[nH]c1nc(Oc3ccc(C#N)nc3)nc(N3C[C@H]4C[C@@H]3C[C@H]4N)c12 [Compound 4.434] |  |  |  |  |  |  |  |  |  |  |  | MIC [1]: 1 µg/mL (≈ 2.25 µM); MIC [2]: ≤ 0.5 µg/mL; MIC [7]: ≤ 0.5 µg/mL; MIC [8]: 1 µg/mL (≈ 2.25 µM); MIC [9, 13]: ≤ 0.5 µg/mL; MIC [9, 14]: ≤ 0.5 µg/mL; MIC [3, 15]: ≤ 0.5 µg/mL; MIC [3, 16]: ≤ 0.5 µg/mL
CNc1cc(F)c(C)c2c1[nH]c1nc(Oc3cnc(C)nc3)nc(N3CC4C[C@@H]3C[C@H]4N)c12 [Compound 6.280] |  |  |  |  |  |  |  |  |  |  |  | MIC [1]: 1 µg/mL (≈ 2.23 µM); MIC [2]: ≤ 0.5 µg/mL; MIC [7]: ≤ 0.5 µg/mL; MIC [8]: 2 µg/mL (≈ 4.46 µM); MIC [9, 13]: ≤ 0.5 µg/mL; MIC [9, 14]: ≤ 0.5 µg/mL; MIC [3, 15]: ≤ 0.5 µg/mL; MIC [3, 16]: ≤ 0.5 µg/mL
CNc1cc(F)c(C)c2c1[nH]c1nc(Oc3cnc(C)nc3)nc(N3C[C@H](N)C4(CC4)C3)c12 [Compound 6.290] |  |  |  |  |  |  |  |  |  |  |  | MIC [1]: 2 µg/mL (≈ 4.46 µM); MIC [2]: ≤ 0.5 µg/mL; MIC [7]: ≤ 0.5 µg/mL; MIC [8]: 2 µg/mL (≈ 4.46 µM); MIC [9, 13]: ≤ 0.5 µg/mL; MIC [9, 14]: ≤ 0.5 µg/mL; MIC [3, 15]: ≤ 0.5 µg/mL; MIC [3, 16]: ≤ 0.5 µg/mL
CNc1cc(F)cc2c1[nH]c1nc(Oc3cnc4cc[s+]([O-])c4c3)nc(N3C[C@H]4C[C@@H]3C[C@H]4N)c12 (some centres unmarked) [Compound 10.109] |  |  |  |  |  |  |  |  |  |  |  | MIC Ec ([9]; Table 18, Ec): ≤ 0.5 µg/mL; MIC Sa ([3]; Table 18, Sa): ≤ 0.5 µg/mL
C=Cc1cc(F)c(F)c2c1[nH]c1nc(Oc3cnc(C)nc3)nc(N3C[C@H]4C[C@@H]3C[C@H]4N)c12 [Compound 10.110] |  |  |  |  |  |  |  |  |  |  |  | MIC Ec ([9]; Table 18, Ec): ≤ 0.5 µg/mL; MIC Sa ([3]; Table 18, Sa): ≤ 0.5 µg/mL
